Data taken from patent publication US7605265B2, “Heterodimers and methods of using them” (priority 2007, dated 2009).

What was measured:
[1] = target: T1, acetylcholinesterase (AChE) (Rattus norvegicus, UniProt P37136); assay: In vitro inhibition of AChE (cholinesterase assay, Ellman method); type: biochemical; settings: for times more potent than bis(7)-tacrine / times more potent than tacrine: AChE inhibition; for Selectivity AchE*: IC50 (BChE)/IC50 (AChE); for IC50: enzyme prepared from rat cortex
T1 construct: from tissue; host or cells: rat brain cortex
T1 sequence (P37136 32-614): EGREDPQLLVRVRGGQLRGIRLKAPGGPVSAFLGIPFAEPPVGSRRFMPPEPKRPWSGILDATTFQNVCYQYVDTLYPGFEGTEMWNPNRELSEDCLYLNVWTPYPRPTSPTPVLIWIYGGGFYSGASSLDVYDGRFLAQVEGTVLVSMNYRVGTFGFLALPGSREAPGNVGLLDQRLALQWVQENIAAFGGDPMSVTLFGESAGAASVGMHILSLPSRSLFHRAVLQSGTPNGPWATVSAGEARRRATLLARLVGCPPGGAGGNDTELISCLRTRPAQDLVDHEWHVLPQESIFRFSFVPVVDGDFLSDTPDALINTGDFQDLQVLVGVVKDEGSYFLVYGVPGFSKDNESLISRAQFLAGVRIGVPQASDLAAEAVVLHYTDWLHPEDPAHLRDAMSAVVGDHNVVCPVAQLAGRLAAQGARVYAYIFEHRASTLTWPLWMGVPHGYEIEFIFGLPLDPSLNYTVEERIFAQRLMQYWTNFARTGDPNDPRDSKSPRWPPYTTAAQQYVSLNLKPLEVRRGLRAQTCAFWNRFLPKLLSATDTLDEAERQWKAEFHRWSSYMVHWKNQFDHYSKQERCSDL
Method: The in vitro inhibition of the enzymes acetylcholinesterase (AChE) and butyrylcholinesterase (BChE) were assessed. BChE, like AChE, breaks down acetylcholine (ACh) but is found in plasma and other organs such as the liver, skin and gastrointestinal tract.
The enzymes, AChE and BChE, used in the inhibition studies were prepared from the cortex and serum of decapitated rats, respectively.

[2] = tested on: scopolamine-induced memory impaired rats; assay: Morris water maze, scopolamine-induced memory impairment; type: in vivo, rat; settings: for escape latency: 4 days; for spatial bias: scopolamine 0.1 mg/kg; for spatial bias (% of total distance swum in the training quadrant during spatial probe trial): memory-impaired rats, FIG. 4d-4f
Method: The Morris water maze consists of a water pool with a hidden, submerged escape platform. The rats must learn, over a period of consecutive days, the location of the platform using either contextual or local cues. The time taken to locate the hidden platform (escape latency) is a measure of the animal's cognitive abilities.
Scopolamine (0.1 mg/kg) was first i.p. administered to young adult rats to impair their memories. Scopolamine-induced memory impaired rats were then orally administered one of three different doses of compound B (0.025, 0.050, or 0.100 mg/kg) and subjected to the Morris water maze over a period of 4 days. On each day, the time taken for the rats to detect the hidden platform in the water maze was measured, in seconds.
Scopolamine (0.1 mg/kg) was first i.p. administered to young adult rats to impair their memories. Scopolamine-induced memory impaired rats were then orally administered one of three different doses of compound C (0.1, 0.2, or 0.4 mg/kg) and subjected to the Morris water maze over a period of 4 days. On each day, the time taken for the rats to detect the hidden platform in the water maze was measured, in seconds.
Scopolamine (0.1 mg/kg) was first i.p. administered to young adult rats to impair their memories. Scopolamine-induced memory impaired rats were then orally administered one of three different doses of compound A (0.1, 0.2, or 0.4 mg/kg) and subjected to the Morris water maze over a period of 4 days. On each day, the time taken for the rats to detect the hidden platform in the water maze was measured, in seconds.
A spatial bias (% of total distance swum in the training quadrant during spatial probe trial) for the region of the apparatus where the platform was positioned during training was also measured for compounds B and C.
The spatial bias for the region of the testing apparatus where the hidden platform was positioned during training was measured. […] Tacrine (THA) was included for comparison purposes.

NMDA receptor = target: T2, NMDA receptor (Rattus norvegicus, UniProt P35439); assay: Whole cell patch clamp, NMDA-induced current in hippocampal neurons; type: cell-based; settings: DIV10-14 rat hippocampal neurons, NMDA 50 μM, compound 10 μg/mL; FIG. 1
T2 construct: Hippocampal neurons from embryonic day 18 rats were isolated, trypsinized, plated onto 35-mm plates; endogenous in cells; host or cells: primary hippocampal neurons from embryonic day 18 rats, DIV10-14
Method: The NMDA receptor is a gated ion channel, which allows inflow of current during a nerve impulse. Antagonists to the receptor would prevent the inflow of current. Memantine, a known NMDA antagonist was used as the positive control.
Hippocampal neurons from embryonic day 18 rats were isolated, trypsinized, plated onto 35-mm plates at a density of 3×10^4 cells/plate and cultured in Neurobasal medium (NB) supplemented with B27 nutrient. DIV10-14 rat hippocampal neurons were treated with NMDA (50 μM) in the absence or presence of the novel compounds (Cpd A, B and C) (10 μg/mL). Data is presented as % of NMDA-induced current. DMSO is the solvent control.

SMILES	times more potent than bis(7)-tacrine [1]	times more potent than tacrine [1]	Selectivity AchE* [1]	IC50 [1]	escape latency ([2]; 0.1 mg/kg orally, scopolamine 0.1 mg/kg i.p., FIG. 4a)	spatial bias ([2]; 0.05 and 0.1 mg/kg p.o., FIG. 4d)	spatial bias (% of total distance swum in the training quadrant during spatial probe trial) [2]	NMDA-induced current (NMDA receptor)	scopolamine-induced performance deficits (escape latency) ([2]; 0.2 and 0.4 mg/kg orally, scopolamine 0.1 mg/kg i.p., FIG. 4c)	spatial bias ([2]; 0.2 and 0.4 mg/kg, FIG. 4e, 4f)	escape latency, compared with tacrine ([2]; 0.2 mg/kg and 0.4 mg/kg vs 1.5 mg/kg tacrine (THA))	escape latency ([2]; 0.4 mg/kg orally, scopolamine 0.1 mg/kg i.p., FIG. 4b)
O=c1ccc2c([nH]1)CCCC2NCCCCCCCNc1c2c(nc3cc(Cl)ccc13)CCCC2 (stereo not shown) [Compound B]	~1885	~20471	4563	0.0068 ± 0.003 nM	reversed the increased escape latency induced by scopolamine	spatial bias close to control levels	significantly increased spatial bias	decreased NMDA-induced current in hippocampal neurons	–	–	–	–
O=c1ccc2c([nH]1)CCC(NCCCNc1c3c(nc4cc(Cl)ccc14)CCCC3)C2 (stereo not shown) [Compound A]	~53	~200	227.23	0.25 ± 0.05 nM	–	–	significantly increased spatial bias	decreased NMDA-induced current in hippocampal neurons	significantly reversed scopolamine-induced performance deficits	spatial bias close to control levels	–	–
O=c1ccc2c([nH]1)CCCC2NCCCCCCCCNc1c2c(nc3cc(Cl)ccc13)CCCC2 (stereo not shown) [Compound C]	~1039	~11000	50317.32	0.0127 ± 0.002 nM	–	–	significantly increased spatial bias	decreased NMDA-induced current in hippocampal neurons	–	spatial bias close to control levels	more effective that 1.5 mg/kg tacrine	significantly reversed the increased escape latency induced by scopolamine
